The results in this text go back to ChEMBL document CHEMBL4043247, “Design, synthesis and biological evaluation of 8-substituted-6-hydrazonoindolo[2,1-b]quinazolin-12(6H)-one scaffolds as potential cytotoxic agents: IDO-1 targeting molecular docking studies” (Bioorg Med Chem Lett, 2017).

Structures are written as SMILES.

Assay [1] relates to A549. Description: Cytotoxicity against human A549 cells after 6 days by MTT assay. The assay is classed as functional, cell-based. To be noted: A549, 144 h. (In general: Tetrazolium dyes change colour on reduction, which living cells bring about.)
Assay [2] concerns MCF7. Description: Cytotoxicity against human MCF7 cells after 6 days by MTT assay. It counts as functional, cell-based. To be noted: MCF7, 144 h.
For assay [3], the system named is HeLa. Description: Cytotoxicity against human HeLa cells after 6 days by MTT assay. It counts as functional, cell-based. Particulars: 144 h.
Assay [4] in a line: Antioxidant activity assessed as DPPH radical scavenging activity incubated for 30 mins under dark condition by UV-vis spectrophotometric method. It counts as functional. For orientation: DPPH is a stable violet radical that fades when it is reduced.
Assay [5] deals with HEK293. Description: Cytotoxicity against HEK293 cells after 6 days by MTT assay. The assay is classed as cell-based. To be noted: Homo sapiens, HEK293, 144 h.

What is called IC50 is the point on the concentration scale where inhibition reaches its midpoint. With `CC(/C=C(\O)c1ccccc1)=N\N=C1\c2cc(F)ccc2-n2c1nc1ccccc1c2=O`, the IC50 turned out to be 32 µM in assay [1], 20.4 µM in assay [2], 24.5 µM in assay [3] and 20.1 µM in assay [4].
On the same counts, the results for `COc1cccc(/C=N/N=C2/c3cc([N+](=O)[O-])ccc3-n3c2nc2ccccc2c3=O)c1O` are 40.1 µM, 34.2 µM, 38 µM and 28.7 µM.
On the same counts, the results for `COc1cccc(/C=N/N=C2/c3cc(I)ccc3-n3c2nc2ccccc2c3=O)c1O` are 32.3 µM, 30.4 µM, 29.2 µM and 10.9 µM.
On the same counts, the results for `N/N=C1/c2cc(-c3ccncc3)ccc2-n2c1nc1ccccc1c2=O` are 47.8 µM, 50.4 µM, 44.1 µM and 11.2 µM.
With `CC(/C=C(\O)c1ccccc1)=N\N=C1\c2cc(I)ccc2-n2c1nc1ccccc1c2=O`, the IC50 in assay [5] was determined as 82.5 µM; in assay [1], 20.4 µM; in assay [2], 19.9 µM; in assay [3] it was 18.8 µM; in assay [4], 11.6 µM.
On the same counts, the results for `CC(/C=C(\O)c1ccccc1)=N\N=C1\c2cc(-c3ccc(C(=O)O)cc3)ccc2-n2c1nc1ccccc1c2=O` are 64.1 µM, 7.19 µM, 9.42 µM, 9.42 µM and 5.02 µM.
Turning to `N/N=C1/c2cc(-c3ccc(C(=O)O)cc3)ccc2-n2c1nc1ccccc1c2=O`, the IC50 was 62.2 µM in assay [1], 61.1 µM in assay [2], 54.3 µM in assay [3] and 22 µM in assay [4].
For the compound `CC(/C=C(\O)c1ccccc1)=N\N=C1\c2cc(-c3ccncc3)ccc2-n2c1nc1ccccc1c2=O`, the IC50 in assay [5] was 76.1 µM; in assay [1] it was 6.01 µM; in assay [2] it was 11.6 µM; in assay [3], 12.2 µM; in assay [4] it was 6.23 µM.
Consider `COc1cccc(/C=N/N=C2/c3cc(Cl)ccc3-n3c2nc2ccccc2c3=O)c1O`, for which the IC50 was 40.8 µM in assay [1], 35.4 µM in assay [2], 36.6 µM in assay [3] and 22.2 µM in assay [4].
On the same counts, the results for `COc1cccc(/C=N/N=C2/c3cc(-c4ccncc4)ccc3-n3c2nc2ccccc2c3=O)c1O` are 32.9 µM, 24.8 µM, 24.8 µM and 4.98 µM.
On the same counts, the results for `COc1cccc(/C=N/N=C2/c3cc(-c4ccc(C(=O)O)cc4)ccc3-n3c2nc2ccccc2c3=O)c1O` are 39.2 µM, 37.1 µM, 32.3 µM and 5.31 µM.
On the same counts, the results for `N/N=C1/c2cc(F)ccc2-n2c1nc1ccccc1c2=O` are 44.6 µM, 54.6 µM, 67.7 µM and 16.4 µM.
Turning to `N/N=C1/c2cc(I)ccc2-n2c1nc1ccccc1c2=O`, the IC50 turned out to be 43.4 µM in assay [1], 44.9 µM in assay [2], 51.1 µM in assay [3] and 24.9 µM in assay [4].
As to `CC(/C=C(\O)c1ccccc1)=N\N=C1\c2cc(Cl)ccc2-n2c1nc1ccccc1c2=O`, the IC50 in assay [5] is 71 µM; in assay [1], 18.1 µM; in assay [2], 19.7 µM; in assay [3] it was 23.6 µM; in assay [4], 12.5 µM.
`N/N=C1/c2cc(Cl)ccc2-n2c1nc1ccccc1c2=O`: the IC50 in assay [1] amounted to 62.1 µM; in assay [2], 67.5 µM; in assay [3], 55.7 µM; in assay [4], 19.9 µM.
Consider `N/N=C1/c2cc([N+](=O)[O-])ccc2-n2c1nc1ccccc1c2=O`, for which the IC50 in assay [1] was 45.6 µM; in assay [2] it was 53.6 µM; in assay [3], 50.3 µM; in assay [4], 27.3 µM.
Turning to `CC(/C=C(\O)c1ccccc1)=N\N=C1\c2cc([N+](=O)[O-])ccc2-n2c1nc1ccccc1c2=O`, the IC50 in assay [1] is 28.4 µM; in assay [2], 31.5 µM; in assay [3], 33.1 µM; in assay [4], 29.7 µM.
As for `COc1cccc(/C=N/N=C2/c3cc(F)ccc3-n3c2nc2ccccc2c3=O)c1O`, the IC50 in assay [1] came out at 31.2 µM; in assay [2], 35.5 µM; in assay [3], 34.3 µM; in assay [4] it was 21.1 µM.
For `O=C1O[C@H]([C@@H](O)CO)C(O)=C1O` [ASCORBIC ACID], the IC50 in assay [4] turned out to be 3.48 µM.
